Converted amounts (≈) assume the structure as drawn.
What was measured:
Assay type in all cases: cell-based
Hafnia alvei = experiment: MIC by agar dilution (NCCLS M7-A4), 288 enteropathogenic isolates, eight quinolones; details: Hafnia alvei (n = 32)
Shigella spp. = experiment: as above; details: Shigella spp. (n = 21)
Aeromonas spp. = experiment: as above; details: Aeromonas spp. (n = 16)
Campylobacter jejuni = experiment: MIC by agar dilution (NCCLS M7-A4), 5% sheep blood, microaerophilic 48 h; details: Campylobacter jejuni (n=91)
Staphylococcus aureus [1] = experiment: MIC by agar dilution (NCCLS), 411 isolates Buenos Aires 1998-99; details: for MIC90: Staphylococcus aureus
Streptococcus pyogenes = experiment: MIC by NCCLS reference broth microdilution, 450 respiratory tract pathogens; details: for MIC / MIC50 / MIC90: Streptococcus pyogenes
Staphylococcus aureus [2] = experiment: as above
Klebsiella pneumoniae = experiment: as above; details: for MIC50 / MIC90: Klebsiella pneumoniae
Moraxella catarrhalis = experiment: MIC by two-fold serial agar dilution, Sensitivity Disk agar-N (Kitasato isolates); details: Moraxella catarrhalis (22)
Staphylococcus aureus [3] = experiment: MIC by NCCLS broth microdilution, 1100 Japanese clinical isolates 1997-1998
[4] = S. aureus, Methicillin resistant (n = 14)
[5] = S. aureus, Methicillin susceptible (n = 66)
[6] = Streptococcus pyogenes (n = 100)
[7] = erythromycin resistant C phenotype [MLSB] (n = 20)
[8] = erythromycin resistant I phenotype [MLSB] (n = 20)
[9] = erythromycin resistant M phenotype (n = 20)
[10] = β-lactamase positive and erythromycin resistant (n = 10)
[11] = extended spectrum β-lactamase negative (n = 30)
[12] = extended spectrum β-lactamase positive (n = 20)
[13] = Staphylococcus aureus, Staphylococcus aureus oxacillin resistant (n=57)
[14] = Staphylococcus aureus, Staphylococcus aureus oxacillin susceptible (n=41)

CO/N=C1\CN(c2nc3c(cc2F)c(=O)c(C(=O)O)cn3C2CC2)CC1CN (racemic) [Gemifloxacin, (R,S)-7-(3-aminomethyl-4-methoxyiminopyrrolidin-1-yl)-1-cyclopropyl-6-fluoro-4-oxo-1,4-dihydro-1,8-naphthyridine-3-carboxylic acid]
% Susceptible (Hafnia alvei): 100% | MIC50 (Hafnia alvei): 0.03 µg/mL (≈ 0.077 µM) | MIC90 (Hafnia alvei): 0.03 µg/mL (≈ 0.077 µM) | MIC Range (Hafnia alvei): ≤0.015 to 0.06 µg/mL | % Susceptible (Shigella spp.): 100% | MIC50 (Shigella spp.): ≤ 0.015 µg/mL | MIC90 (Shigella spp.): ≤ 0.015 µg/mL | MIC Range (Shigella spp.): ≤0.015 µg/mL | % Susceptible (Aeromonas spp.): 100% | MIC50 (Aeromonas spp.): ≤ 0.015 µg/mL | MIC90 (Aeromonas spp.): 0.03 µg/mL (≈ 0.077 µM) | MIC Range (Aeromonas spp.): ≤0.015 to 0.12 µg/mL | % Susceptible (Campylobacter jejuni): 31.86% | MIC50 (Campylobacter jejuni): 32 µg/mL (≈ 82.2 µM) | MIC90 (Campylobacter jejuni): 128 µg/mL (≈ 329 µM) | MIC Range (Campylobacter jejuni): 0.03 to 128 µg/mL | Resistance (%) (Staphylococcus aureus [1]; [4]): 0% | Resistance (%) (Staphylococcus aureus [1]; [5]): 0% | MIC Range (Staphylococcus aureus [1]; Staphylococcus aureus (n = 80)): ≤0.004 to 2 µg/mL | MIC90 (Staphylococcus aureus [1]; [4]): 2 µg/mL (≈ 5.14 µM) | MIC90 (Staphylococcus aureus [1]; [5]): 0.03 µg/mL (≈ 0.077 µM) | MIC90 (Staphylococcus aureus [1]; Staphylococcus aureus (n = 80)): 1 µg/mL (≈ 2.57 µM) | activity higher than that of the other fluoroquinolones tested (Streptococcus pyogenes; S. pyogenes): 2-32 fold | MIC (Streptococcus pyogenes; [6]): 0.00375 to 0.06 µg/mL (≈ 0.00963 to 0.154 µM) | MIC50 (Streptococcus pyogenes; [6]): 0.015 µg/mL (≈ 0.0385 µM) | MIC90 (Streptococcus pyogenes; [6]): 0.03 µg/mL (≈ 0.077 µM) | MIC (Streptococcus pyogenes; [7]): 0.00375 to 0.03 µg/mL (≈ 0.00963 to 0.077 µM) | MIC50 (Streptococcus pyogenes; [7]): 0.015 µg/mL (≈ 0.0385 µM) | MIC90 (Streptococcus pyogenes; [7]): 0.015 µg/mL (≈ 0.0385 µM) | MIC (Streptococcus pyogenes; [8]): 0.00375 to 0.06 µg/mL (≈ 0.00963 to 0.154 µM) | MIC50 (Streptococcus pyogenes; [8]): 0.015 µg/mL (≈ 0.0385 µM) | MIC90 (Streptococcus pyogenes; [8]): 0.03 µg/mL (≈ 0.077 µM) | MIC (Streptococcus pyogenes; [9]): 0.00375 to 0.03 µg/mL (≈ 0.00963 to 0.077 µM) | MIC50 (Streptococcus pyogenes; [9]): 0.015 µg/mL (≈ 0.0385 µM) | MIC90 (Streptococcus pyogenes; [9]): 0.015 µg/mL (≈ 0.0385 µM) | MIC (Streptococcus pyogenes; fully susceptible (n = 20)): 0.0075 to 0.03 µg/mL (≈ 0.0193 to 0.077 µM) | MIC50 (Streptococcus pyogenes; fully susceptible (n = 20)): 0.015 µg/mL (≈ 0.0385 µM) | MIC90 (Streptococcus pyogenes; fully susceptible (n = 20)): 0.03 µg/mL (≈ 0.077 µM) | MIC (Streptococcus pyogenes; multi-drug resistant (n = 20)): 0.0075 to 0.015 µg/mL (≈ 0.0193 to 0.0385 µM) | MIC50 (Streptococcus pyogenes; multi-drug resistant (n = 20)): 0.015 µg/mL (≈ 0.0385 µM) | MIC90 (Streptococcus pyogenes; multi-drug resistant (n = 20)): 0.03 µg/mL (≈ 0.077 µM) | MIC (Staphylococcus aureus [2]; Staphylococcus aureus (n = 50)): 0.00375 to 0.12 µg/mL (≈ 0.00963 to 0.308 µM) | MIC50 (Staphylococcus aureus [2]; Staphylococcus aureus (n = 50)): 0.06 µg/mL (≈ 0.154 µM) | MIC90 (Staphylococcus aureus [2]; Staphylococcus aureus (n = 50)): 0.12 µg/mL (≈ 0.308 µM) | MIC (Staphylococcus aureus [2]; β-lactamase negative (n = 20)): 0.06 to 0.12 µg/mL (≈ 0.154 to 0.308 µM) | MIC50 (Staphylococcus aureus [2]; β-lactamase negative (n = 20)): 0.12 µg/mL (≈ 0.308 µM) | MIC90 (Staphylococcus aureus [2]; β-lactamase negative (n = 20)): 0.12 µg/mL (≈ 0.308 µM) | MIC (Staphylococcus aureus [2]; β-lactamase positive (n = 20)): 0.00375 to 0.12 µg/mL (≈ 0.00963 to 0.308 µM) | MIC50 (Staphylococcus aureus [2]; β-lactamase positive (n = 20)): 0.12 µg/mL (≈ 0.308 µM) | MIC90 (Staphylococcus aureus [2]; β-lactamase positive (n = 20)): 0.123 µg/mL (≈ 0.316 µM) | MIC (Staphylococcus aureus [2]; [10]): 0.06 to 0.12 µg/mL (≈ 0.154 to 0.308 µM) | MIC50 (Staphylococcus aureus [2]; [10]): 0.06 µg/mL (≈ 0.154 µM) | MIC90 (Staphylococcus aureus [2]; [10]): 0.06 µg/mL (≈ 0.154 µM) | MIC Range (Klebsiella pneumoniae; Klebsiella pneumoniae (n = 50)): ≤0.0075 to 1 µg/mL | MIC50 (Klebsiella pneumoniae; Klebsiella pneumoniae (n = 50)): 0.03 µg/mL (≈ 0.077 µM) | MIC90 (Klebsiella pneumoniae; Klebsiella pneumoniae (n = 50)): 0.25 µg/mL (≈ 0.642 µM) | MIC50 (Klebsiella pneumoniae; [11]): 0.015 µg/mL (≈ 0.0385 µM) | MIC90 (Klebsiella pneumoniae; [11]): 0.06 µg/mL (≈ 0.154 µM) | MIC50 (Klebsiella pneumoniae; [12]): 0.25 µg/mL (≈ 0.642 µM) | MIC90 (Klebsiella pneumoniae; [12]): 0.5 µg/mL (≈ 1.28 µM) | MIC Range (Klebsiella pneumoniae; [11]): ≤0.0075 to 0.12 µg/mL | MIC Range (Klebsiella pneumoniae; [12]): 0.03 to 1 µg/mL | MIC50 (Moraxella catarrhalis): 0.031 µg/mL (≈ 0.0796 µM) | MIC90 (Moraxella catarrhalis): 0.031 µg/mL (≈ 0.0796 µM) | MIC Range (Moraxella catarrhalis): 0.016 to 0.031 µg/mL | MIC Range (Staphylococcus aureus [3]; Staphylococcus aureus oxacillin resistant (n=57)): ≤0.008 to 64 µg/mL | MIC Range (Staphylococcus aureus [3]; Staphylococcus aureus oxacillin susceptible (n=41)): ≤0.008 to 1 µg/mL | MIC50 (Staphylococcus aureus [3]; [13]): 1 µg/mL (≈ 2.57 µM) | MIC90 (Staphylococcus aureus [3]; [13]): 32 µg/mL (≈ 82.2 µM) | MIC50 (Staphylococcus aureus [3]; [14]): 0.063 µg/mL (≈ 0.162 µM) | MIC90 (Staphylococcus aureus [3]; [14]): 0.063 µg/mL (≈ 0.162 µM) | MIC (Staphylococcus aureus [3]; Staphylococcus aureus, Staphylococcus aureus quinolone resistant, strain TMS1* (spontaneous mutant resistant to ciprofloxacin)): 0.032 µg/mL (≈ 0.0822 µM)
